# Experimental data taken from patent US20140243332A1, “METHODS OF TREATING CANCERS CHARACTERIZED BY ABERRENT ROS1 ACTIVITY” (Oregon Health & Science University, priority 2013, published 2014).
# How the values were obtained:
# [1] = test system: SLC-ROS and ERK1/2 phosphorylation; assay: Immunoblot of HCC78 lysates; format: cell-based, human; details: HCC78 cells, immunoblot FIG. 1E
# Experimental: FIG. 1E is an image of an immunoblot of lysates of HCC78 cells probing for phosphorylated and total SLC-ROS1 and ERK1/2, and phosphorylated protein S6 after treatment with the indicated concentration of the indicated inhibitor. The images are representative of two independent experiments.
# (§1) Ba/F3 FIG-ROS, Ba/F3 SLC-ROS, HCC78 and mCC cell lines were treated with the indicated concentration of inhibitors for 1-2 hours. […] The protein content of the cell lysates was determined and lysates were either used for immunoprecipitation where indicated or extracted with SDS Sample buffer for 15 minutes at 80° C. Proteins were transferred to Immobilon-FL membranes and immunoblotted with antibodies specific for phospho-ROS1 (Cell Signaling Technology (CST) #3078), total ROS1 (CST #3266), phopsho-Shp2 (CST #3751), total Shpt (CST #3752), phospho-Stat3 (CST #9145), total Stat3 (CST #4904), phospho-Erk1/2 (CST #9101), total Erk2 (Santa Cruz #SC-1647), phospho-S6 (CST #4858), total S6 (CST #2216), phospho-Src (CST #2105), total Src (CST #2110), α-tubulin (Sigma T6199), or β-actin (Sigma A1978) as indicated. Images of the blots were generated by the LI-COR Odyssey® imaging system, following the manufacturer's protocol for immunoblot detection with use of IR-dye conjugated secondary antibodies.
# [2] = test system: HCC78 cells; assay: HCC78 cell migration (scratch gap closure); format: cell-based, human; details: 50 nM, 18 hours, FIG. 6A
# Experimental: FIG. 6A is a set of six images on the left and a bar graph on the right. The images at left are of a gap at 10 minutes and at 18 hours after ‘scratch’ of cells on a surface. […] The right panel is a bar graph depicting the percent of gap closure determined by measuring the length of a straight line drawn across the gap from imaging the same field of view at initiation of treatment and at 18 hours. Scale bar=200 μm
# [3] = target: Ba/F3 FIG-ROS C2060G cells (Homo sapiens, UniProt P08922, C2060G, cells depend on it); assay: Cell viability assay, Ba/F3 FIG-ROS C2060G; format: cell-based; details: Table 3, Ba/F3 FIG-ROS C2060G; nM; read-out: IC50 (the source's name)
# Experimental: Cell lines were distributed in 96-well plates and incubated with the indicated concentrations of inhibitor for 72 hours. […] Ba/F3 cell lines were plated at 4×10^3 cells/well. HCC78 and mCC cell lines were plated at 1.5×10^3 cells/well. All cell types were seeded in a final volume of 80 microliters. A 20 microliter volume of five-fold concentrated inhibitor media was added. Cell proliferation was measured using a […] viability assay (CellTiter96 Aqueous One® Solution; Promega). A BioTek Synergy 2® plate reader was used to read the absorbance at 490 nm at 30 minutes and 1 hour after addition of MTS. To facilitate comparison between experiments, the raw MTS absorbance of vehicle (0.1% DMSO) treated cells was set to 1 and absorbance from inhibitor treated wells was normalized to the vehicle treated value. […] Data were normalized using Microsoft Excel® and further non-linear regression curve fit analysis of the normalized data for determination of IC50 was performed using Graphpad Prism® software.
# The FIG-ROS-S fusion gene was synthesized using the GeneArt® service. FIG-ROS-S is denoted as FIG-ROS herein.
# [4] = target: T1, FIG-ROS (Homo sapiens, UniProt P08922); assay: Immunoblot of NIH3T3 FIG-ROS lysates; format: cell-based; set-up: expressed in transfected cells; host or cells: Ba/F3 (A14) and NIH3T3 (A24), retroviral pMSCV-IRES-GFP; the other entry of the earlier key: GOPC (Q9HD26, Golgi-associated PDZ and coiled-coil motif-containing protein); details: NIH3T3 FIG-ROS cells, 1 hour, at lower doses than crizotinib
# Experimental: (§2) The parental Ba/F3 cell line was cultured in RPMI 1640 medium with 10% FBS, L-glutamine, penicillin/streptomycin and 15% WEHI-conditioned media. Ba/F3 cell lines were maintained at densities of 0.5×10^6 to 1.5×10^6 per ml of media. FIG-ROS and SLC-ROS Ba/F3 lines were created by infecting the parental Ba/F3 with retrovirus expressing either human FIG-ROS-S (indicated FIG-ROS herein) or SLC-ROS-S (indicated SLC-ROS herein). Stable transfectant lines were sorted for GFP expression on a FACS Aria® flow cytometer. Cells were counted daily using Guava ViaCount® reagent and Guava Personal Cell Analysis® flow cytometer. […] Early passage NIH3T3 cells were infected with retrovirus expressing either FIG-ROS or SLC-ROS and sorted for GFP expression as described above for Ba/F3 cells. HCC78 cells were cultured in RPMI 1640 medium with 10% FBS, L-glutamine, and penicillin/streptomycin. This media is referred to as RPMI-10% FBS herein.
# [5] = target: T1, FIG-ROS; assay: Immunoblot of FIG-ROS murine cholangiocarcinoma cell lysates; format: cell-based; set-up: expressed in transfected cells; host or cells: murine cholangiocarcinoma tumour cell lines (lines 3 and 4) derived from transduced mouse hepatoblasts; the other entry of the earlier key: GOPC (Q9HD26, Golgi-associated PDZ and coiled-coil motif-containing protein); details: 100 nM, FIG-ROS murine cholangiocarcinoma cells
# Experimental: […]. Images shown are representative of three independent experiments.
# as §1
# . The inhibition was dose dependent (FIG. 2B). […].
# [6] = target: Ba/F3 ALK F1174L cells (Homo sapiens, UniProt Q9UM73, F1174L, cells depend on it); assay: Cell viability (MTS) assay, Ba/F3 ALK F1174L; format: cell-based; details: 72 hours, read-out: IC50 (the source's name)
# [7] = target: T2, Ba/F3 SLC-ROS cells (Homo sapiens, UniProt P08922); assay: Cell viability (MTS) assay, Ba/F3 SLC-ROS; format: cell-based; details: 72 hours, read-out: IC50 (the source's name)
# T2 construct: SLC-ROS-S (SLC-ROS) was cloned from cDNA made from HCC78 cells; fused on or other part: GFP is co-expressed from an IRES in pMIG and is not fused; O95436 (Sodium-dependent phosphate transport protein 2B)
# Experimental: as §2
# […]. The Ba/F3 parental line was also tested. (O'Dwyer M E and Druker B J, Lancet Oncology 1, 207-211 (2000); Walters D K et al, Cancer Cell 10, 65-75 (2006); and Heukamp L C et al, Science Translational Medicine 4, 141ra191 (2012); […].
smiles,measurement,setting,value
"COc1cc2c(Oc3ccc(NC(=O)C4(C(=O)Nc5ccc(F)cc5)CC4)cc3F)ccnc2cc1OCCCN1CCOCC1 [foretinib, N1′-[3-fluoro-4-[[6-methoxy-7-(3-morpholinopropoxy)-4-quinolyl]oxy]phenyl]-N1-(4-fluorophenyl)cyclopropane-1,1-dicarboxamide]",inhibition of SLC-ROS and ERK1/2 phosphorylation,[1],at a lower concentration than did crizotinib
same,HCC78 cell migration,[2],more potently inhibited by foretinib than crizotinib
same,GI50,[3],13.6 nM
same,FIG-ROS phosphorylation,[4],strongly suppressed
same,auto-phosphorylation of FIG-ROS and phosphorylation of Shpt and ERK1/2,[5],almost completely inhibited
same,GI50,[6],1800 nM
same,GI50,[7],10 nM
